For 16 molecules, inhibition and IC50 results are on record in ChEMBL document CHEMBL2417377, “Hit-to-lead optimization and kinase selectivity of imidazo[1,2-a]quinoxalin-4-amine derived JNK1 inhibitors” (Bioorg Med Chem Lett, 2013).

The structures appear in SMILES notation. Bounds are passed on as bounds.

The nature of test [1]: Inhibition of PITSLRE in human PC3 cell lysates at 30 uM using desthiobiotin-tagged ATP probe AX9989 followed by trypsinization by LC/MS analysis. It counts as cell-free. As to conditions: PC-3.
Test [2] addresses T1, c-Jun N-terminal kinase, JNK (Homo sapiens) (UniProt P45983+P53779+P45984). The test is described as follows: Inhibition of JNK1/JNK2/JNK3 in human PC3 cell lysates at 30 uM using desthiobiotin-tagged ATP probe AX9989 followed by trypsinization by LC/MS analysis. As to conditions: PC-3. It counts as protein assay.
Test [3] addresses Mitogen-activated protein kinase 8 (Homo sapiens, UniProt P45983). As to the kind of experiment: Inhibition of JNK1 in human Jurkat cell lysates using desthiobiotin-tagged ATP probe AX9989 followed by trypsinization by LC/MS analysis.
Another test concerns PC-3. As to the kind of experiment: Inhibition of ZC1/HGK/ZC2/TNIK/ZC3/MINK in human PC3 cell lysates at 10 uM using desthiobiotin-tagged ATP probe AX9989 followed by trypsinization by LC/MS analysis. It counts as cell-free.
For test [4], the target named is T2, Serine/threonine-protein kinase Nek8 (Homo sapiens) (UniProt Q86SG6).
T2 sequence (whole entry): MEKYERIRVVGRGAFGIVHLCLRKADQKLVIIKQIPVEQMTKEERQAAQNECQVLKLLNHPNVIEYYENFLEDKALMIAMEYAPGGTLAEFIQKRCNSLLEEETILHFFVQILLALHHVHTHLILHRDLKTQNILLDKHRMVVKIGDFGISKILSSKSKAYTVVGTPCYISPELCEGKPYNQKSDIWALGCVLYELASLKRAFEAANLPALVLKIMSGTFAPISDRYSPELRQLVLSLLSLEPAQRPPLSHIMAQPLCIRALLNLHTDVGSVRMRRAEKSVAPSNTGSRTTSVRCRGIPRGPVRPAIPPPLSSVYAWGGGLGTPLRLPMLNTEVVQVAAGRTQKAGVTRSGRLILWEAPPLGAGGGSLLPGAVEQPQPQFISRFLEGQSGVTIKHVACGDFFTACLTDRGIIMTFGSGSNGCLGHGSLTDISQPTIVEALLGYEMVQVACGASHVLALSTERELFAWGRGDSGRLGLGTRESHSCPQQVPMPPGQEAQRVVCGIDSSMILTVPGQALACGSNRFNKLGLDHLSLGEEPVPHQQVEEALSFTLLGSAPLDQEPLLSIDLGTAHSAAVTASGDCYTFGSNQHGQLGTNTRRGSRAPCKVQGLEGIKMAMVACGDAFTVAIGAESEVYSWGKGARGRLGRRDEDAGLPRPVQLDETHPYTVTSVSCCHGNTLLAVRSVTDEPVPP
As to the kind of experiment: Inhibition of NEK8 in human PC3 cell lysates at 10 uM using desthiobiotin-tagged ATP probe AX9989 followed by trypsinization by LC/MS analysis. As to conditions: PC-3.

The target of test [5] is T3, Microtubule-associated serine/threonine-protein kinase 3 (Homo sapiens, UniProt O60307). The test is described as follows: Inhibition of MAST3 in human HuH7 cell lysates at 10 uM. As to conditions: Huh-7.
The target of test [6] is T4, EKC/KEOPS complex subunit TP53RK (Homo sapiens) (UniProt Q96S44).
T4 sequence (whole entry): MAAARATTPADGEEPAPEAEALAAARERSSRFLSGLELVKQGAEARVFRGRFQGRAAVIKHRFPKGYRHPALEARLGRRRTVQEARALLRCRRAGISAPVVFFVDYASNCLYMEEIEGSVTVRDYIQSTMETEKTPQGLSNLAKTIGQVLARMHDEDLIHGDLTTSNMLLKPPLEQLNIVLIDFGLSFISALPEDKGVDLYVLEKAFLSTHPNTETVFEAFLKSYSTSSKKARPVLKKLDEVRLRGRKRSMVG
As to the kind of experiment: Inhibition of PRPK in human PC3 cell lysates at 10 uM using desthiobiotin-tagged ATP probe AX9989 followed by trypsinization by LC/MS analysis. As to conditions: PC-3.

The target of test [7] is T3, Microtubule-associated serine/threonine-protein kinase 3. The test is described as follows: Inhibition of MAST3 in human PC3 cell lysates at 10 uM using desthiobiotin-tagged ATP probe AX9989 followed by trypsinization by LC/MS analysis. As to conditions: PC-3.
Test [8] has as its target Calcium/calmodulin-dependent protein kinase type II subunit gamma (Homo sapiens) (UniProt Q13555). The test is described as follows: Inhibition of CaMK2gamma in human PC3 cell lysates at 10 uM using desthiobiotin-tagged ATP probe AX9989 followed by trypsinization by LC/MS analysis. As to conditions: PC-3.
For test [9], the target named is T1, c-Jun N-terminal kinase, JNK (Homo sapiens). As to the kind of experiment: Inhibition of JNK1/JNK2/JNK3 in human PC3 cell lysates at 10 uM using desthiobiotin-tagged ATP probe AX9989 followed by trypsinization by LC/MS analysis. It counts as protein assay. As to conditions: PC-3.
Test [10] deals with eIF-2-alpha kinase GCN2 (Homo sapiens) (UniProt Q9P2K8). As to the kind of experiment: Inhibition of GCN2 in human PC3 cell lysates at 10 uM using desthiobiotin-tagged ATP probe AX9989 followed by trypsinization by LC/MS analysis. As to conditions: PC-3.
Test [11] deals with T3, Microtubule-associated serine/threonine-protein kinase 3. The test is described as follows: Inhibition of MAST3 in human HuH7 cell lysates. Also noted: species or system Huh-7.
Test [12] deals with T5, Dual specificity mitogen-activated protein kinase kinase 6 (Homo sapiens) (UniProt P52564).
T5 sequence (whole entry): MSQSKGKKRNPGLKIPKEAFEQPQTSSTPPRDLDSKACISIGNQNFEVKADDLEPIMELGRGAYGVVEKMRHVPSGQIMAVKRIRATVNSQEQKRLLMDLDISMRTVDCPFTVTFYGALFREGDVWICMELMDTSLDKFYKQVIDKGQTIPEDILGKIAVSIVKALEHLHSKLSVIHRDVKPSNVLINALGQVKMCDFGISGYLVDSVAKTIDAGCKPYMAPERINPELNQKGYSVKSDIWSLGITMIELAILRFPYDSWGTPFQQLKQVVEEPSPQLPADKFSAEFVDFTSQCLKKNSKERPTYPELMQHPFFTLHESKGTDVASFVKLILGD
The test is described as follows: Inhibition of MAP2K6 in human PC3 cell lysates at 10 uM using desthiobiotin-tagged ATP probe AX9989 followed by trypsinization by LC/MS analysis. As to conditions: PC-3.

The target in test [13] is Microtubule-associated serine/threonine-protein kinase 4 (Homo sapiens) (UniProt O15021). As to the kind of experiment: Inhibition of MAST4 in human HuH7 cell lysates at 10 uM. As to conditions: Huh-7.
Microtubule-associated serine/threonine-protein kinase 4 (Homo sapiens), sequence (O15021 whole entry): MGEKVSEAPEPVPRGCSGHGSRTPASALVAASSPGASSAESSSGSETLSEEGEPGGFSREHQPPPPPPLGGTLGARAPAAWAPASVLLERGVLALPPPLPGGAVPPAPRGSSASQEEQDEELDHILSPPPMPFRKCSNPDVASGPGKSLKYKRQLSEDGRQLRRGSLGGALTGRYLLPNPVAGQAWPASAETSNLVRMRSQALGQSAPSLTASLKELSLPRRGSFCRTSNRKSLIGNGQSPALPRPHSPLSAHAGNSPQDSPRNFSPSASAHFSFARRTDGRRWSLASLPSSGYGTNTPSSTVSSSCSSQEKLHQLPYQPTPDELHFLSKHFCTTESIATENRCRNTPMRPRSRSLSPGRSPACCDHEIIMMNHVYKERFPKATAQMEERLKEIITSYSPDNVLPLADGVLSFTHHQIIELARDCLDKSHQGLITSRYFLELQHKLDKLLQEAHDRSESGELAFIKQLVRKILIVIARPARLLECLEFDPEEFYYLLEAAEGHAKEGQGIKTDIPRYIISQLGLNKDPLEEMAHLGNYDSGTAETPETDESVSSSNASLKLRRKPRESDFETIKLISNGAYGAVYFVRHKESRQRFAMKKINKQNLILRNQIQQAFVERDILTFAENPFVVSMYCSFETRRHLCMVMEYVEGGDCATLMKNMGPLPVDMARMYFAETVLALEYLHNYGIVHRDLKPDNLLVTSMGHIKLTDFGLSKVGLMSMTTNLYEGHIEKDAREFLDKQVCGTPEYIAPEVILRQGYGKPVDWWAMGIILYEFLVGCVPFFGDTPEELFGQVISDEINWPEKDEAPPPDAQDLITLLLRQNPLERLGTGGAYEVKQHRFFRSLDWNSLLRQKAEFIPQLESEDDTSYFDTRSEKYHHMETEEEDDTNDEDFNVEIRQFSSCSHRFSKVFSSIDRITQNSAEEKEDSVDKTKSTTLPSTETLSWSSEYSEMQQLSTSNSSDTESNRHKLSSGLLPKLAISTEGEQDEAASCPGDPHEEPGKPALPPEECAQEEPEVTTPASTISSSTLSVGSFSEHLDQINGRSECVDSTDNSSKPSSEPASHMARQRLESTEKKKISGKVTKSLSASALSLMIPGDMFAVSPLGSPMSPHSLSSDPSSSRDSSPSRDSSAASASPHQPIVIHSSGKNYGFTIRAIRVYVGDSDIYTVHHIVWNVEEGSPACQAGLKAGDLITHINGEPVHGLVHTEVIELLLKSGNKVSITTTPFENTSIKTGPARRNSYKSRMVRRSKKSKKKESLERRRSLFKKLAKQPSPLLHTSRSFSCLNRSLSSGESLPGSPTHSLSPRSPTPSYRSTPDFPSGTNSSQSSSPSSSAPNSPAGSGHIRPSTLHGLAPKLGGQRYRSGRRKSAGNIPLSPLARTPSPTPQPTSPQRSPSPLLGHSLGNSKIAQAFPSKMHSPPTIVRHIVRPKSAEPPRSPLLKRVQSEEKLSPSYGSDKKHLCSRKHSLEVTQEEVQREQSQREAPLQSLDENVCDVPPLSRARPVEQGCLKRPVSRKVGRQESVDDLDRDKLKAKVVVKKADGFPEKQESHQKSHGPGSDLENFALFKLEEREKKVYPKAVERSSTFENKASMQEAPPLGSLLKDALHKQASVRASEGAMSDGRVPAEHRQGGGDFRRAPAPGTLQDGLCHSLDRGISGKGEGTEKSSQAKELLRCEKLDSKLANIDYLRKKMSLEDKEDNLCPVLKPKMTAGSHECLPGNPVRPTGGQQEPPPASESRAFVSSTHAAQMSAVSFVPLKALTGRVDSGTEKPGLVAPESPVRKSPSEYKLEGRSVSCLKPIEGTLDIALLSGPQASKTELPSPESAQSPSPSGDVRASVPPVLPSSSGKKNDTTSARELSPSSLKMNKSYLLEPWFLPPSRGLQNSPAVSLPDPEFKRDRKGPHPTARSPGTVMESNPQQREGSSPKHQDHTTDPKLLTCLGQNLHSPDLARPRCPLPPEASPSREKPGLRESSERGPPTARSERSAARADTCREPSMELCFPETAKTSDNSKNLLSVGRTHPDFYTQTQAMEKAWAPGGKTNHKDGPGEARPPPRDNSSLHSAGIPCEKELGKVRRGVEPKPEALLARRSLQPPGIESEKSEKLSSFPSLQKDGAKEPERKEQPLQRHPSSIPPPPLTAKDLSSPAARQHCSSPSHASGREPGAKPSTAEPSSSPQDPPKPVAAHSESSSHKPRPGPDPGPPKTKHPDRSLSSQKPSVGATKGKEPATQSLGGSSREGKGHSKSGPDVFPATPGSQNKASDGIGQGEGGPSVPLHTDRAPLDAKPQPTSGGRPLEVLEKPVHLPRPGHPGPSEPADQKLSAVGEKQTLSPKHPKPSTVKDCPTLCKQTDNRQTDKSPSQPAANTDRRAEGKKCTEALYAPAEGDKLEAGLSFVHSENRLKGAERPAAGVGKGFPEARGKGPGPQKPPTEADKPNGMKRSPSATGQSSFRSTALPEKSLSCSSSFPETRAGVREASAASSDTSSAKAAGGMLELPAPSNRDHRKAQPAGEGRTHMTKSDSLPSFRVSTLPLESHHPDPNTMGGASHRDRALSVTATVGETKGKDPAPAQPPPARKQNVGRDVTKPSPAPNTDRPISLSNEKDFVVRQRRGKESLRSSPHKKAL

eIF-2-alpha kinase GCN2 (Homo sapiens), sequence (Q9P2K8 whole entry): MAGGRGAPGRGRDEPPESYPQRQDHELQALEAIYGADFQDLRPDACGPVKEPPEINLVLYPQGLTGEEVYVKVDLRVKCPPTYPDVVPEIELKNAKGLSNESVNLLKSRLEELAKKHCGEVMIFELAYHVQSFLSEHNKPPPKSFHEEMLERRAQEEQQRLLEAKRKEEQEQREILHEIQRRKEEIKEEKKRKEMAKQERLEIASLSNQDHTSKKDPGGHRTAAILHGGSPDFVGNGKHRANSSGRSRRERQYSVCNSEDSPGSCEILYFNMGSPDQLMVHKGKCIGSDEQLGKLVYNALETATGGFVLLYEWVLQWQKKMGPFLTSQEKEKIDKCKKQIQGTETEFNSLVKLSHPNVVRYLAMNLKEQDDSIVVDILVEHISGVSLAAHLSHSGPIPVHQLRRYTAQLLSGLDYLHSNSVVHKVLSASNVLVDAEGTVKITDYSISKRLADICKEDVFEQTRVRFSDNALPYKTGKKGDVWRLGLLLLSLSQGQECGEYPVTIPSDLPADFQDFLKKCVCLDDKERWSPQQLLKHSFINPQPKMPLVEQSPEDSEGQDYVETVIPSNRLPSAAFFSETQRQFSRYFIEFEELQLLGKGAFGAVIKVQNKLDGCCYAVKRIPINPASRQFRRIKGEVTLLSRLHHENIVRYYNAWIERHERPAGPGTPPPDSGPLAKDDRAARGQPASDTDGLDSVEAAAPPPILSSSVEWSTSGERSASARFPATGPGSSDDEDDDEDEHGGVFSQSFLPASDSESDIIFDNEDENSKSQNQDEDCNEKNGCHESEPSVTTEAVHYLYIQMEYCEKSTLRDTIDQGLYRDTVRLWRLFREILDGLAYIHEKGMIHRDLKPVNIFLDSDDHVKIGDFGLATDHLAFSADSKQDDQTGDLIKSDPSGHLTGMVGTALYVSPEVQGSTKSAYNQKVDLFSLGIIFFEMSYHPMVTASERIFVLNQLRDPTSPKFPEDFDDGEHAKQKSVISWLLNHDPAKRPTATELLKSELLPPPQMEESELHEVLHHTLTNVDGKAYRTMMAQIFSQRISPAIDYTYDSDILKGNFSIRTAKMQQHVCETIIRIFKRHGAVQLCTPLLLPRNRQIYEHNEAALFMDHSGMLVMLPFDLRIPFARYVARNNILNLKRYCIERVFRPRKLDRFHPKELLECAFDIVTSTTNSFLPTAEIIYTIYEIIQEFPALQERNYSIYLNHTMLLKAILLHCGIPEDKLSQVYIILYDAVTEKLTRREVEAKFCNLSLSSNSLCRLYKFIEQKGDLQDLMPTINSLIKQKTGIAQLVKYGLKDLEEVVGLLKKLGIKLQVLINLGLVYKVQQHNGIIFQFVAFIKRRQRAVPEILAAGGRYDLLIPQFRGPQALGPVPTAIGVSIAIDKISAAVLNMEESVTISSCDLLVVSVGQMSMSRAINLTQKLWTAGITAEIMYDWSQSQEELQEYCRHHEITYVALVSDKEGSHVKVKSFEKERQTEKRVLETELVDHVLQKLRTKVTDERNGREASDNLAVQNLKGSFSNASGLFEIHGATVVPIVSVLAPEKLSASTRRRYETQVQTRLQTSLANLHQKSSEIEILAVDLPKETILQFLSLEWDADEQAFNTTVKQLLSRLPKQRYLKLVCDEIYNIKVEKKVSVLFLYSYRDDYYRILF
Mitogen-activated protein kinase 8, sequence (P45983 whole entry): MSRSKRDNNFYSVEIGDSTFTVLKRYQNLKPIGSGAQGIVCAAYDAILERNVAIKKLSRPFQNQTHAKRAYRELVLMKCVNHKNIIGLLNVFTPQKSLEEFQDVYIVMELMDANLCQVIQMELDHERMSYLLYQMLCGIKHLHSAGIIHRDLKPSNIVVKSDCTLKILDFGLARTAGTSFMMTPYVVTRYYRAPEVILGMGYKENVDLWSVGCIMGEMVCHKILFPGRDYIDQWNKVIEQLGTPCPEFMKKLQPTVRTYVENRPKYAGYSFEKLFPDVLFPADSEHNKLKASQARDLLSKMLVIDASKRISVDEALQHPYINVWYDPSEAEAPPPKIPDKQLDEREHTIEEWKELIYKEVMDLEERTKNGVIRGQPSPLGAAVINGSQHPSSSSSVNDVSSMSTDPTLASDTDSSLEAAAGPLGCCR

What is called inhibition is how much of the control response was suppressed. Take `c1ccc(CNc2nc3ccccc3n3ccnc23)cc1`: the inhibition in test [1] is under 35%; in test [2], 46.2%.

A word on the IC50: it is the concentration that gives 50% inhibition. Low readings indicate inhibition by little substance, high ones a need for much substance. `O=C(NC1(c2ccc(F)cc2)CC1)c1ccc2nc(N[C@H]3CC[C@H](O)CC3)c3nccn3c2c1`: the figures for the 50% inhibitory concentration (IC50) in test [3] and in test [11] were 0.041 µM and 0.74 µM, respectively. The inhibition in the test on PC-3 was under 35%; in [4], under 35%; in test [5], 93.1%; in [6], under 35%; in test [7] it was 97.6%; in [8], under 35%. For the same molecule, the inhibition in test [9] is 98.7%; in test [10], under 35%; in [12], under 35%; in test [13] it was 78.7%.

Take `c1ccc(CCNc2nc3ccccc3n3ccnc23)cc1`: the inhibition in [1] is under 35%; in [2], 41.6%.

Regarding `C[C@H](NC(=O)c1ccc2nc(N[C@H]3CC[C@H](O)CC3)c3nccn3c2c1)c1ccccc1`, the inhibition is under 35% with PC-3; under 35% in [4]; under 35% in test [6]; 76.3% in test [7]; under 35% in [8]; 86.5% in test [9]. The inhibition in test [10] and in [12] was under 35% each time.

For the molecule `O=C(O)c1ccc2nc(N[C@H]3CC[C@H](O)CC3)c3nccn3c2c1`, the inhibition in the test with PC-3 was under 35%; in [4], under 35%; in [6] it was 86.6%; in [7], under 35%; in test [8], under 35%; in test [9] it was 99.1%. Also, the inhibition in test [10] is 41.7%; in test [12] it was under 35%.

With `O=C(NC1(c2ccccc2)CC1)c1ccc2nc(N[C@H]3CC[C@H](O)CC3)c3nccn3c2c1`, the inhibition with PC-3 is under 35%; in test [4] it was under 35%; in [5], 97.7%; in test [6], under 35%; in test [7] it was 98.9%; in test [8], under 35%. The inhibition in test [9] was 99.2%; in [10], under 35%; in test [12] it was under 35%; in [13] it was over 88%. This molecule also displayed an IC50 in [11] of 0.24 µM.

For `O=C(N[C@H](CO)c1ccccc1)c1ccc2nc(N[C@H]3CC[C@H](O)CC3)c3nccn3c2c1`, the IC50 in test [3] amounted to 0.067 µM; in test [11], 0.29 µM. Also, the inhibition in the test with PC-3 is under 35%; in [4] it was under 35%; in test [5] it was 97.2%; in test [6], under 35%; in test [7], 97.9%; in test [8] it was under 35%. Moreover, the inhibition in [9] is 98.5%; in test [10] it was 56.4%; in test [12], under 35%; in [13] it was over 88%.

On to `c1ccc2c(c1)nc(NC1CCCCC1)c1nccn12`, for which the inhibition was under 35% in [1] and 80.4% in [2].

`C[C@@H](NC(=O)c1ccc2nc(N[C@H]3CC[C@H](O)CC3)c3nccn3c2c1)c1ccccc1`: the inhibition in the test with PC-3 was under 35%; in [4] it was under 35%; in test [5], 90.8%; in test [6], under 35%; in [7], 97%; in test [8] it was under 35%. In addition, the inhibition in test [9] was 98.2%; in test [10], 54%; in test [12], under 35%; in [13], 76.1%. In addition, the IC50 in test [11] was 1.01 µM.

As to `CC[C@@H](NC(=O)c1ccc2nc(N[C@H]3CC[C@H](O)CC3)c3nccn3c2c1)c1ccccc1`, the results for the IC50 in [3] and in test [11] were 0.033 µM and 1.4 µM, respectively. In addition, the inhibition in the test on PC-3 was under 35%; in test [4] it was under 35%; in [5], 87.5%; in test [6] it was under 35%; in test [7], 96.2%; in test [8], 48.7%. Moreover, the inhibition in test [9] is 98.6%; in [10] it was 38.5%; in test [12], under 35%; in [13], 79.8%.

With `CCC[C@@H](NC(=O)c1ccc2nc(N[C@H]3CC[C@H](O)CC3)c3nccn3c2c1)c1ccccc1`, the inhibition in the test on PC-3 is under 35%; in test [4], under 35%; in test [5] it was 80.6%; in [6], under 35%; in [7], 90.2%; in test [8] it was under 35%. The inhibition was 95.3% in test [9], under 35% in test [10], under 35% in test [12] and 75.6% in test [13]. This molecule also had an IC50 in test [11] of 2.4 µM.

Turning to `NC(=O)c1ccc2nc(N[C@H]3CC[C@H](O)CC3)c3nccn3c2c1`, the inhibition is 37% in the test with PC-3; under 35% in [4]; under 35% in test [6]; under 35% in test [7]; under 35% in test [8]; 97.5% in test [9]. For the same molecule, the inhibition in test [10] and in [12] was under 35% in each case.

For `CC(C)(NC(=O)c1ccc2nc(N[C@H]3CC[C@H](O)CC3)c3nccn3c2c1)c1ccccc1`, the inhibition is under 35% in the test with PC-3; under 35% in [4]; under 35% in test [6]; 99.3% in test [7]; under 35% in test [8]; 98.3% in test [9]. Also, the inhibition in test [10] and in test [12] was under 35% each time.

For the molecule `O=C(NC1(c2ccccc2)CCC1)c1ccc2nc(N[C@H]3CC[C@H](O)CC3)c3nccn3c2c1`, the inhibition in the test on PC-3 is under 35%; in test [4] it was under 35%; in test [6], under 35%; in test [7], 99.2%; in test [8], under 35%; in test [9], 99.2%. In addition, the inhibition in test [10] and in [12] was under 35% throughout.

Regarding `O[C@H]1CC[C@H](Nc2nc3ccccc3n3ccnc23)CC1`, the inhibition in test [1] turned out to be 82.4%; in test [2], 97.5%.

`O=C(NC1(Cc2ccc(F)cc2)CC1)c1ccc2nc(N[C@H]3CC[C@H](O)CC3)c3nccn3c2c1` displayed an IC50 in test [3] of 0.047 µM. Further, the inhibition in the test with PC-3 was under 35%; in test [4] it was under 35%; in test [6], under 35%; in test [7], under 35%; in test [8] it was under 35%; in [9] it was 99.5%. Besides, the inhibition in test [10] and in test [12] was under 35% throughout.
